Results reported in the NIST ThermoML archive (doi:10.1016/j.fluid.2013.06.019).
Numbers after ± are expanded uncertainties.

Conditions: Crystal; Heating/Cooling curves

SMILES	Triple point temperature
F/C=C/C(F)(F)F [trans-1,3,3,3-tetrafluoropropene]	168.8 ± 2 K
C=C(F)C(F)(F)F [2,3,3,3-tetrafluoro-1-propene]	122.6 ± 2 K
O=C=O [carbon dioxide]	216.6 ± 2 K
